Measurements published in patent EP0240854A1, “Bis-tert-butylamino-substituted 1,3,5-triazine derivatives, process for their preparation, medicaments containing these compounds, and their use” (HOECHST AKTIENGESELLSCHAFT, priority 1986, dated 1987).

Columns and labels:
[1] = system: Pentetrazol-induzierte Krämpfe; assay: Antagonism against pentetrazol-induced convulsions (Swinyard); format: in vivo, Maus; details: p.o., pentetrazol 125 mg/kg s.c. 1 h after test substance, tonic extensor convulsions; for ED50: Mus musculus, po, 1 h, read-out: Ptz Maus ED 50
From the text: (§1) Die Krampf-verhindernde (antikonvulsive) Wirkung der erfindungsgemäßen Verbindungen wurde an Mäusen gegen Pentetrazol- und gegen Elektroschock- induzierte Krämpfe in der Anordnung von SWINYARD geprüft.
1. Antagonismus gegen Pentetrazol-induzierte Krämpfe (Maus)
Methode (E.A.SWINYARD, J.Pharmacol.Exp.Ther. 106, (1952), 319-330):
Gruppen von 10 männlichen Mäusen (Stamm: NMRI, SPF-71, KF) im Gewicht von 18-22 g werden in diesem Versuch verwendet. Die zu prüfenden Substanzen werden in einer 1 %-igen Aufschwemmung von ®Tylose (Methyl-hydroxy-ethyl-cellulose) in Wasser suspendiert und per Schlundsonde in einem Volumen von 10 ml/kg Körpergewicht oral verabreicht. Die Kontrollgruppe erhält ein entsprechendes Volumen Tylosesuspension ohne Prüfsubstanz. Pentetrazol (Cardiazol®) wird in wässriger Lösung in einer Dosis von 125 mg/kg Körpergewicht 1 Stunde nach Verabreichung der Prüfsubstanzen subcutan injiziert. Diese Dosis erzeugt bei 90-100 % der Kontrolltiere innerhalb der Beobachtungszeit von 60 Minuten nach der Injektion tonische Extensorkrämpfe der hinteren Extremitä-ten. Als Schutzwirkung der Prüfsubstanz wird gewertet, wenn die Anzahl der krampfenden Tiere gegenüber der Kontrollgruppe vermindert ist. Bei vorhandener Schutzwirkung der Prüfsubstanz wird eine mittlere effektive Dosis (ED-50) grafisch (Litchfield and Wilcoxon) oder rechnerisch (Probitanalyse) ermittelt.

[2] = system: Elektroschock-induzierte Krämpfe; assay: Antagonism against electroshock-induced convulsions (Swinyard); format: in vivo; details: Mus musculus, po, electroshock via corneal electrodes 1 h after test substance, tonic extensor convulsions; read-out: ECS Maus ED 50
From the text: as §1
2. Antagonismus gegen Elektroschock-induzierte Krämpfe (Maus).
Methode (E.A.SWINYARD, In: Experimental Models of Epilepsy, Raven Press, New York, 1972, p. 433-458):
Gruppen von 6 männlichen Mäusen (Stamm: NMRI, SPF-71, KF) im Gewicht von 18-22 g werden in diesem Versuch verwendet. Die zu prüfenden Substanzen werden in einer 1 %igen Aufschwemmung von Tylose (Methyl-hydroxy-ethyl-cellulose) in Wasser suspendiert und per Schlundsonde in einem Volumen von 10 ml/kg Körpergewicht oral verabreicht. Die Kontrollgruppe erhält ein entsprechendes Volumen Tylosesuspension ohne Prüfsubstanz. Eine Stunde nach Prüfsubstanzgabe wird den Tieren über Cornea-Elektroden ein Elektroschock verabreicht (Stromstärke 12-22 mA, Dauer 0,2 sec, 50 Hz), nachdem vorher an einer zweiten Kontrollgruppe die Stromstärke ermittelt worden war, die bei 100 % der Tiere eine tonischen Extensorkrampf der hinteren Extremitäten hervorruft. Die Anzahl der durch die Prüfsubstanz vor einem Extensorkrampf geschützten Tiere dient als Mass der antikonvulsiven Wirkung in diesem Test. Bei vorhandener Schutzwirkung der Prüfsubstanz wird eine mittlere effektive Dosis (ED-50) grafisch (Litchfield and Wilcoxon) oder rechnerisch (Probitanalyse) ermittelt.

Wistar Ratten [3] = assay: Lick-shock-conflict test (Vogel); format: in vivo, Ratte; details: Rattus norvegicus, po; for minimal effective dose: lowest dose with significant increase of lickings in the shock phase, read-out: Lick-Sh. Ratte MED; for change in vivo at 10 mg/kg: 10 mg/kg p.o.; for change in vivo at 10 mg/kg / change in vivo at 30 mg/kg: increase versus control group, read-out: Lick-Sh. Ratte prozentuale Zunahme der angenommenen Belohnungen (Wasser); for change in vivo at 30 mg/kg: 30 mg/kg p.o.
From the text: (§2) Die Angst-lösende (anxiolytische Wirkung) der erfindungsgemäßen Verbindungen wurde im "Lick-shock-conflict- Test" nach VOGEl und im "Geller-Seifter-Konflikt-Test" nach GELLER und SEIFTER an WISTAR-Ratten geprüft.
3. Lick-shock-conflict-Test
Methode (VOGEL, J.R., Psychopharmacologia 21, (1971), 1-7
Männliche Wistar Ratten aus eigener Aufzucht (SPF Hattersheim) im Gewicht zwischen 90 und 120 g werden verwendet. Den Tieren wird für 48 Stunden vor Testbeginn das Trinkwasser entzogen. Zum Test werden die Tiere in eine Plastikbox (14x12x28 cm, BxTxH) gesetzt, die mit einer Wasserflasche mit Metall-Trinkrohr ausgestattet ist und die außerdem erlaubt, über eine elektronische Schaltung die Anzahl der Kontakte der Zunge des Tieres mit dem Trinkrohr zu messen. Der Boden der Box besteht aus Metallstäben, die durch die Steuerungselektronik unter Strom gesetzt werden können. Die Tiere haben nach dem Einsetzen in die Box 5 min. Zeit, um das Trinkrohr zu finden und 50-mal daran zu lekken. Tiere, die das Trinkrohr innerhalb dieser Zeit nicht gefunden haben, werden für den Versuch nicht verwendet. Nach diesen 50 Leckvorgängen (lickings) werden Trinkrohr und Bodenstäbe für jeweils 5 sec unter Strom gesetzt (Gleichstrom 300 µA) und dann für weitere 5 sec. wieder freigegeben. Diese Folge wird alternierend für eine Zeit von 5 min. weitergeführt, wobei die Zahl der Trinkrohr-Kontakte des Tieres während der Reizstrom- und der reizstromfreien Phase auf verschiedenen elektronischen Zählern registriert werden.
Gruppen von jeweils acht Tieren pro Dosis werden mit den Prüfsubstanzen, die in einem 1 %igen Tylose-Gel aufgeschwemmt sind, oral per Schlundsonde behandelt. Das Injektionsvolumen beträgt 5 ml/kg Körpergewicht. Die Prüfung in der obg. Testapparatur erfolgt 1 und 2 Std. nach Applikation der Prüfsubstanzen. Die Anzahl der Trinkrohr-Kontakte in der Reizstrom-Phase dient als Prüf-Variable. Die mittlere Anzahl der Kontakte in dieser Phase bei der Kontrollgruppe wird zu 100 % gesetzt und Zu- oder Abnahme der Kontaktzahl bei den mit Prüfsubstanz behandelten Tieren wird prozentual in Bezug auf die Kontrollgruppe ausgedrückt.
Anxiolytika bewirken in diesem Test gewöhnlich eine deutliche Zunahme der Wasseraufnahme (lickings) in der Reizstrom-Phase gegenüber den unbehandelten Kontrollen. Falls eine lineare oder logarithmische Beziehung zwischen Dosis und Wirkung gegeben ist, wird eine ED + 100 (d.i. die Dosis, die eine Zunahme der Wasseraufnahme um 100 % gegenüber der Kontrollgruppe bewirkt) mittels Regressionsanalyse errechnet. Ist eine lineare Dosisabhängigkeit nicht gegeben, so wird eine minimal effektive Dosis (MED) bestimmt, d.i. die niedrigste Dosis der Prüfsubstanz, die noch eine statistisch signifikante Zunahme der Wasseraufnahme im Vergleich zur Kontrollgruppe bewirkt (p=0,05, DUNNET-Test).

Wistar Ratten [4] = assay: Geller-Seifter conflict test; format: in vivo, Ratte; details: for minimal effective dose: Rattus norvegicus, po, 0.5 h, p.o., 30 min before test, lowest dose with significant change of lever press rate, read-out: Geller Ratte MED
From the text: as §2
4. Geller-Seifter-Konflikt-Test
Methode (Geller, I.und Seifter, J., Psychopharmacologia 1 (1962), 482):
Männliche Wistar Ratten aus eigener Aufzucht (SPF Hattersheim) im Gewicht zwischen 240 und 370 g werden verwendet und Versuchsgruppen zu je 8 Tieren zugeordnet. Je 4 Tiere werden in Plastikkäfigen (56x38x20 cm) zusammengesetzt und durch abgewogene Futtermengen auf ca. 80 % ihres normalen Körpergewichts gehalten.
Die Tiere werden trainiert, in einer SKINNER-Box eine Taste zu drücken, um eine Belohnung in Form von gesüßter Kondensmilch zu erhalten. Die Box enthält zwei Tasten mit Mikroschaltern, einen Lautsprecher, ein Hauslicht, zwei Signallichter über den Tasten sowie einen Fußboden aus Metallstäben. Das Trainingsschema wurde der Arbeit von GELLER und SEIFTER (1962) in der Modifikation von DAVIDSON & COOK (Psychopharmacologia 15 (1969), 159-168) entlehnt: Jede Sitzung besteht aus vier 15-Minuten-Abschnitten, die alle aus einer 12-minütigen "Variable Interval" (VI) Phase und einer 3-minütigen "Fixed ration" (FR) Phase zusammengesetzt sind. Während der VI-Phase erhalten die Tiere auf Tastendruck Milchbelohnungen in einem durch einen Zufallsgenerator gesteuerten Intervall von 10-110 sec. mit einem Mittelwert um 60 15 sec. Während der FR-Phase erhalten die Tiere für jeden Tastendruck eine Belohnung, zusätzlich wird jedoch bei jedem 3. Tastendruck ein schmerzhafter elektrischer Reiz über die Fussbodenstäbe verabreicht, um eine Konfliktsituation zu erzeugen. Die Stromstärke des elektrischen Reizes wird für jedes Tier individuell so eingestellt (0,3-0,6 mA), daß die Tastendruckrate in der gesamten FR-Phase zwischen 5 und 15 liegt.
Das Training findet an 5 Tagen in der Woche statt, Versuche mit Prüfsubstanzen werden einmal wöchentlich durchgeführt. Da die Tiere als ihre eigene Kontrolle dienen, werden vor jedem Versuch mit Prüfsubstanzen mindestens zwei Vorwerte ohne Prüfsubstanz durchgeführt. Die zu prüfenden Verbindungen werden in einem 1 %igen Tylose-Gel suspendiert und 30 min vor Testbeginn oral per Schlundsonde in einem Volumen von 2 ml/kg verabreicht. Veränderungen der Tastendruckrate in der VI-Phase werden als Beeinflussung der motorischen Aktivität und Steigerung der Tastendruckrate in der FR-Phase werden als Anzeichnen für eine "Antikonflikt-" bzw. "anxiolytische" Wirkung gewertet. Bestimmt wird meist die minimal effektive Dosis (MED) der Prüfsubstanz, d.i. die niedrigste geprüfte Dosis, die noch eine statistisch signifikante Änderung der Tastendruckrate bewirkt (p=0,05; WILCOXON matched pairs signed rank test).

SMILES	ED50 [1] [mg/kg]	Ptz Maus ED 50 ([1]; 60 min) [mg/kg]	ED50 [2] [mg/kg]	minimal effective dose (Wistar Ratten [3]) [mg/kg]	change in vivo at 10 mg/kg (Wistar Ratten [3]) [%]	Geller Ratte prozentuale Zunahme der angenommenen Belohnungen (Milch) (Wistar Ratten [4]; 3 mg/kg p.o.) [%]	Geller Ratte prozentuale Zunahme der angenommenen Belohnungen (Milch) (Wistar Ratten [4]; 10 mg/kg p.o.) [%]	Geller Ratte prozentuale Zunahme der angenommenen Belohnungen (Milch) (Wistar Ratten [4]; 30 mg/kg p.o.) [%]	minimal effective dose (Wistar Ratten [4]) [mg/kg]	change in vivo at 30 mg/kg (Wistar Ratten [3]) [%]	Geller Ratte prozentuale Zunahme der angenommenen Belohnungen (Milch) (Wistar Ratten [4]; 2,5 mg/kg p.o.) [%]
CC(C)(C)Nc1nc(NC(C)(C)C)nc(N2CCCCC2)n1 [Beispiel 1, 2,4-Bis-(tert.butylamino)-6-piperidino-1,3,5-triazin]	4.2	2.1	32	10	63	91	97	382	3	–	–
CC(C)(C)Nc1nc(NC(C)(C)C)nc(N2CCCC2)n1 [Beispiel 2, 2,4-Bis-(tert.butylamino)-6-pyrrolidino-1,3,5-triazin]	2.4	–	30	10	61	–	–	–	–	74	–
CC(C)(C)Nc1nc(NN2CCCCC2)nc(NC(C)(C)C)n1 [Beispiel 3, 2,4-Bis-(tert.butylamino)-6-(piperidino-amino)-1,3,5-triazin]	3.2	–	30	10	75	–	–	–	–	87	–
CC(C)(C)Nc1nc(NN2CCOCC2)nc(NC(C)(C)C)n1 [Beispiel 4, 2,4-Bis-(tert.butylamino)-6-(morpholino-amino)-1,3,5-triazin]	8.3	–	30	10	82	–	–	–	2.5	–	22
CC(C)(C)Nc1nc(NC(C)(C)C)nc(-n2ccnc2)n1 [Beispiel 5]	12.2	–	30	30	–	–	–	–	–	34	–
CN(C)Nc1nc(NC(C)(C)C)nc(NC(C)(C)C)n1 [Beispiel 6, 2,4-Bis-(tert.butylamino)-6-(Nʹ-dimethylhydrazino)-1,3,5-triazin]	10	–	20.7	10	103	–	–	–	10	–	–
CCN(CC)c1nc(NC(C)(C)C)nc(NC(C)(C)C)n1 [Beispiel 7, 2,4-Bis-(tert.butylamino)-6-diethylamino-1,3,5-triazin]	6.9	–	14.5	30	–	–	–	–	–	101	–
CC(C)Nc1nc(NC(C)(C)C)nc(NC(C)(C)C)n1 [Beispiel 8, 2,4-Bis-(tert.butylamino)-6-isopropylamino-1,3,5-triazin]	2.3	–	46.6	10	154	–	76	91	10	230	–
CC(C)(C)Nc1nc(NC2CCCC2)nc(NC(C)(C)C)n1 [Beispiel 9, 2,4-Bis-(tert.butylamino)-6-cyclopentylamino-1,3,5-triazin]	10.3	–	24.7	30	–	–	–	–	–	68	–
CC(C)C(C)Nc1nc(NC(C)(C)C)nc(NC(C)(C)C)n1 (stereo not drawn) [Beispiel 10, 2,4-Bis-(tert.-butylamino)-6-(1,2-dimethylpropylamino)-1,3,5-triazin]	30	–	19.7	30	–	–	–	–	–	61	–
